Results: PubChem BioAssay (NCI)
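1) Cells in 96-well plates. 2) Compound, 48 h, 5 concentrations. 3) Linear interpolation between surrounding doses. 4) Unreached endpoint = highest concentration. At the GI50, growth is halved. Definition used: TGI = concentration required for complete inhibition of growth.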

What was measured:
Experiment in all cases: NCI tumour cell line growth inhibition, 48 h
OVCAR-5 ovarian = test system: OVCAR-5 ovarian
CCRF-CEM leukemia = test system: CCRF-CEM leukemia
UACC-257 melanoma = test system: UACC-257 melanoma
NCI-H226 lung = test system: NCI-H226 lung
A498 renal = test system: A498 renal
MOLT-4 leukemia = test system: MOLT-4 leukemia
SK-MEL-2 melanoma = test system: SK-MEL-2 melanoma
SN12C renal = test system: SN12C renal
M14 melanoma = test system: M14 melanoma
SNB-19 CNS = test system: SNB-19 CNS
MCF7 breast = test system: MCF7 breast
COLO 205 colon = test system: COLO 205 colon
SW-620 colon = test system: SW-620 colon
NCI-H23 lung = test system: NCI-H23 lung
KM12 colon = test system: KM12 colon
T-47D breast = test system: T-47D breast
EKVX NSCLC = test system: EKVX NSCLC
SF-539 CNS = test system: SF-539 CNS
RXF 393 renal = test system: RXF 393 renal
SK-OV-3 ovarian = test system: SK-OV-3 ovarian
786-0 renal = test system: 786-0 renal
OVCAR-8 ovarian = test system: OVCAR-8 ovarian
OVCAR-3 ovarian = test system: OVCAR-3 ovarian
MDA-MB-435 = test system: MDA-MB-435
PC-3 prostate = test system: PC-3 prostate
HS 578T breast = test system: HS 578T breast
CAKI-1 renal = test system: CAKI-1 renal
MDA-MB-231 breast = test system: MDA-MB-231 breast
HL-60(TB) leukemia = test system: HL-60(TB) leukemia
NCI-H522 lung = test system: NCI-H522 lung
HT29 colon = test system: HT29 colon
HOP-92 NSCLC = test system: HOP-92 NSCLC
TK-10 renal = test system: TK-10 renal
U251 CNS = test system: U251 CNS
HCC-2998 colon = test system: HCC-2998 colon
LOX IMVI melanoma = test system: LOX IMVI melanoma
UO-31 renal = test system: UO-31 renal
RPMI-8226 leukemia = test system: RPMI-8226 leukemia
DU-145 prostate = test system: DU-145 prostate
SK-MEL-5 melanoma = test system: SK-MEL-5 melanoma
K-562 leukemia = test system: K-562 leukemia
SF-268 CNS = test system: SF-268 CNS
HCT-15 colon = test system: HCT-15 colon
A549 NSCLC = test system: A549 NSCLC
ACHN renal = test system: ACHN renal
NCI/ADR-RES ovarian = test system: NCI/ADR-RES ovarian
SF-295 CNS = test system: SF-295 CNS
MALME-3M melanoma = test system: MALME-3M melanoma
SNB-75 CNS = test system: SNB-75 CNS
SR leukemia = test system: SR leukemia
BT-549 breast = test system: BT-549 breast
HOP-62 NSCLC = test system: HOP-62 NSCLC
HCT-116 colon = test system: HCT-116 colon
OVCAR-4 ovarian = test system: OVCAR-4 ovarian
UACC-62 melanoma = test system: UACC-62 melanoma
IGROV1 ovarian = test system: IGROV1 ovarian
SK-MEL-28 melanoma = test system: SK-MEL-28 melanoma
NCI-H460 lung = test system: NCI-H460 lung

Question: How did the GI50 (OVCAR-5 ovarian) turn out when `c1cc(N2CCCC2)c2nc(-c3[nH]ncc3Nc3ncnc4[nH]ccc34)[nH]c2c1` was run?
Answer: 115 nM

Question: What about the TGI (OVCAR-5 ovarian) of the same molecule?
Answer: 2200 nM

Question: What about the GI50 (CCRF-CEM leukemia) of the same molecule?
Answer: 28 nM

Question: What about the TGI (CCRF-CEM leukemia) of the same molecule?
Answer: 1310 nM

Question: What about the GI50 (UACC-257 melanoma) of the same molecule?
Answer: 150 nM

Question: What about the TGI (UACC-257 melanoma) of the same molecule?
Answer: 1110 nM

Question: And the GI50 (NCI-H226 lung)?
Answer: 41 nM

Question: And the TGI (NCI-H226 lung)?
Answer: 204 nM

Question: And the GI50 (A498 renal)?
Answer: 20.2 nM

Question: And the TGI (A498 renal)?
Answer: 55 nM

Question: And the GI50 (MOLT-4 leukemia)?
Answer: 33.8 nM

Question: What about the TGI (MOLT-4 leukemia) of the same molecule?
Answer: 4.83 µM

Question: And the GI50 (SK-MEL-2 melanoma)?
Answer: 53 nM

Question: And the TGI (SK-MEL-2 melanoma)?
Answer: 292 nM

Question: And the GI50 (SN12C renal)?
Answer: 54.3 nM

Question: What about the TGI (SN12C renal) of the same molecule?
Answer: 793 nM

Question: What about the GI50 (M14 melanoma) of the same molecule?
Answer: 49.5 nM

Question: What about the TGI (M14 melanoma) of the same molecule?
Answer: 483 nM

Question: And the GI50 (SNB-19 CNS)?
Answer: 96.2 nM

Question: What about the TGI (SNB-19 CNS) of the same molecule?
Answer: 1580 nM

Question: What about the GI50 (MCF7 breast) of the same molecule?
Answer: 80.6 nM

Question: What about the TGI (MCF7 breast) of the same molecule?
Answer: 677 nM

Question: And the GI50 (COLO 205 colon)?
Answer: 285 nM

Question: And the TGI (COLO 205 colon)?
Answer: 2030 nM

Question: What about the GI50 (SW-620 colon) of the same molecule?
Answer: 68.4 nM

Question: What about the TGI (SW-620 colon) of the same molecule?
Answer: 548 nM

Question: And the GI50 (NCI-H23 lung)?
Answer: 69.4 nM

Question: And the TGI (NCI-H23 lung)?
Answer: 680 nM

Question: What about the GI50 (KM12 colon) of the same molecule?
Answer: 79.3 nM

Question: And the TGI (KM12 colon)?
Answer: 459 nM

Question: What about the GI50 (T-47D breast) of the same molecule?
Answer: 139 nM

Question: And the TGI (T-47D breast)?
Answer: 5.97 µM

Question: What about the GI50 (EKVX NSCLC) of the same molecule?
Answer: 151 nM

Question: What about the TGI (EKVX NSCLC) of the same molecule?
Answer: 1700 nM

Question: What about the GI50 (SF-539 CNS) of the same molecule?
Answer: 20.6 nM

Question: What about the TGI (SF-539 CNS) of the same molecule?
Answer: 256 nM

Question: And the GI50 (RXF 393 renal)?
Answer: 22.8 nM

Question: And the TGI (RXF 393 renal)?
Answer: 92.9 nM

Question: And the GI50 (SK-OV-3 ovarian)?
Answer: 27.6 nM

Question: What about the TGI (SK-OV-3 ovarian) of the same molecule?
Answer: 586 nM

Question: What about the GI50 (786-0 renal) of the same molecule?
Answer: 34.1 nM

Question: What about the TGI (786-0 renal) of the same molecule?
Answer: 560 nM

Question: And the GI50 (OVCAR-8 ovarian)?
Answer: 84.7 nM

Question: What about the TGI (OVCAR-8 ovarian) of the same molecule?
Answer: 1360 nM

Question: What about the GI50 (OVCAR-3 ovarian) of the same molecule?
Answer: 44.1 nM

Question: And the TGI (OVCAR-3 ovarian)?
Answer: 663 nM

Question: And the GI50 (MDA-MB-435)?
Answer: 94.4 nM

Question: And the TGI (MDA-MB-435)?
Answer: 511 nM

Question: What about the GI50 (PC-3 prostate) of the same molecule?
Answer: 26.1 nM

Question: And the TGI (PC-3 prostate)?
Answer: 446 nM

Question: What about the TGI (HS 578T breast) of the same molecule?
Answer: 77.1 nM

Question: What about the GI50 (CAKI-1 renal) of the same molecule?
Answer: 22 nM

Question: What about the TGI (CAKI-1 renal) of the same molecule?
Answer: 253 nM

Question: What about the GI50 (MDA-MB-231 breast) of the same molecule?
Answer: 62.8 nM

Question: What about the TGI (MDA-MB-231 breast) of the same molecule?
Answer: 418 nM

Question: What about the GI50 (HL-60(TB) leukemia) of the same molecule?
Answer: 32.6 nM

Question: And the TGI (HL-60(TB) leukemia)?
Answer: 91.6 nM

Question: What about the GI50 (NCI-H522 lung) of the same molecule?
Answer: 87.3 nM

Question: And the TGI (NCI-H522 lung)?
Answer: 1120 nM

Question: And the GI50 (HT29 colon)?
Answer: 371 nM

Question: And the TGI (HT29 colon)?
Answer: 3.25 µM

Question: And the GI50 (HOP-92 NSCLC)?
Answer: 29.8 nM

Question: What about the TGI (HOP-92 NSCLC) of the same molecule?
Answer: 99.9 nM

Question: And the GI50 (TK-10 renal)?
Answer: 323 nM

Question: What about the TGI (TK-10 renal) of the same molecule?
Answer: 1380 nM

Question: What about the GI50 (U251 CNS) of the same molecule?
Answer: 47.4 nM

Question: What about the TGI (U251 CNS) of the same molecule?
Answer: 838 nM

Question: And the GI50 (HCC-2998 colon)?
Answer: 176 nM

Question: And the TGI (HCC-2998 colon)?
Answer: 942 nM

Question: And the GI50 (LOX IMVI melanoma)?
Answer: 25.4 nM

Question: What about the TGI (LOX IMVI melanoma) of the same molecule?
Answer: 342 nM

Question: And the GI50 (UO-31 renal)?
Answer: 27.8 nM

Question: What about the TGI (UO-31 renal) of the same molecule?
Answer: 267 nM

Question: And the GI50 (RPMI-8226 leukemia)?
Answer: 254 nM

Question: What about the TGI (RPMI-8226 leukemia) of the same molecule?
Answer: 1060 nM

Question: What about the GI50 (DU-145 prostate) of the same molecule?
Answer: 85.3 nM

Question: What about the TGI (DU-145 prostate) of the same molecule?
Answer: 777 nM

Question: What about the GI50 (SK-MEL-5 melanoma) of the same molecule?
Answer: 105 nM

Question: And the TGI (SK-MEL-5 melanoma)?
Answer: 424 nM

Question: What about the GI50 (K-562 leukemia) of the same molecule?
Answer: < 11.5 nM

Question: And the TGI (K-562 leukemia)?
Answer: > 35 µM

Question: What about the GI50 (SF-268 CNS) of the same molecule?
Answer: 108 nM

Question: What about the TGI (SF-268 CNS) of the same molecule?
Answer: 569 nM

Question: What about the GI50 (HCT-15 colon) of the same molecule?
Answer: 76.5 nM

Question: What about the TGI (HCT-15 colon) of the same molecule?
Answer: 584 nM

Question: What about the GI50 (A549 NSCLC) of the same molecule?
Answer: 80.6 nM

Question: And the TGI (A549 NSCLC)?
Answer: 455 nM

Question: And the GI50 (ACHN renal)?
Answer: 30.2 nM

Question: And the TGI (ACHN renal)?
Answer: 679 nM

Question: And the GI50 (NCI/ADR-RES ovarian)?
Answer: 141 nM

Question: What about the TGI (NCI/ADR-RES ovarian) of the same molecule?
Answer: 1260 nM

Question: And the GI50 (SF-295 CNS)?
Answer: 44.1 nM

Question: What about the TGI (SF-295 CNS) of the same molecule?
Answer: 337 nM

Question: What about the GI50 (MALME-3M melanoma) of the same molecule?
Answer: 160 nM

Question: And the TGI (MALME-3M melanoma)?
Answer: 800 nM

Question: And the TGI (SNB-75 CNS)?
Answer: 348 nM

Question: And the GI50 (SR leukemia)?
Answer: 36.2 nM

Question: And the TGI (SR leukemia)?
Answer: 26.7 µM

Question: And the GI50 (BT-549 breast)?
Answer: 67.2 nM

Question: What about the TGI (BT-549 breast) of the same molecule?
Answer: 736 nM

Question: And the GI50 (HOP-62 NSCLC)?
Answer: 100 nM

Question: What about the TGI (HOP-62 NSCLC) of the same molecule?
Answer: 2030 nM

Question: What about the GI50 (HCT-116 colon) of the same molecule?
Answer: 25.5 nM

Question: What about the TGI (HCT-116 colon) of the same molecule?
Answer: 1610 nM

Question: And the GI50 (OVCAR-4 ovarian)?
Answer: 146 nM

Question: What about the TGI (OVCAR-4 ovarian) of the same molecule?
Answer: 1140 nM

Question: And the GI50 (UACC-62 melanoma)?
Answer: 55.4 nM

Question: What about the TGI (UACC-62 melanoma) of the same molecule?
Answer: 196 nM

Question: And the GI50 (IGROV1 ovarian)?
Answer: 39.8 nM

Question: And the TGI (IGROV1 ovarian)?
Answer: 239 nM

Question: What about the GI50 (SK-MEL-28 melanoma) of the same molecule?
Answer: 99.2 nM

Question: What about the TGI (SK-MEL-28 melanoma) of the same molecule?
Answer: 575 nM

Question: And the GI50 (NCI-H460 lung)?
Answer: 90.8 nM

Question: What about the TGI (NCI-H460 lung) of the same molecule?
Answer: 416 nM
